Source: patent US20110021618A1, “METHODS OF TREATING FIBROTIC DISORDERS” (PALOMA PHARMACEUTICALS, INC., priority 2008, published 2011)

What was measured:
[1] = test system: epiretinal membrane formation; conditions: human patients; cited from earlier work
[2] = test system: detached retina (Müller cells, microglia and macrophages, photoreceptors); experiment: Experimental retinal detachment, single intravitreal injection (Example 1); format: in vivo, rabbit
[3] = test system: detached retina (Müller cells); experiment: Experimental retinal detachment, Müller cell proliferation and glial scar formation (Example 2); format: in vivo, rabbit; conditions: 600 micrograms intravitreally in PBS, versus PBS
Experimental: Methods: Experimental retinal detachments were made in the right eyes of pigmented rabbits. Six hundred micrograms of Palomid 529 in 50 microliters of PBS, or PBS alone was injected intravitreally on day 0, immediately after retinal detachment. Each rabbit received 10 micrograms of BrdU intravitreally on day 3. Animals were sacrificed on day 3 or 7, at which time the tissue was fixed in paraformaldahyde, embedded in agarose and sectioned at 100 microns. The sections were labeled with anti-BrdU, to detect dividing cells, and anti-vimentin, to identify Müller cells. Labeling was imaged on an Olympus Fluoview confocal microscope, and the resultant digital images were analyzed to determine the number of proliferating cells as well as the number and length of subretinal glial scars.

[4] = Half-life in the vitreous; format: in vivo
CTGF = experiment: TGF-β1 stimulated CTGF in human lung fibroblasts, Western Blot; format: cell-based; conditions: 30 μM; 30 minutes pre-treatment before TGF-β1
Source text: (§1) Transforming growth factor-beta one (TGF-β1) and alpha-Thrombin (α-Thrombin) are known to be involved in the pathogenesis of fibrotic disease. In an in vitro model of pulmonary fibrosis, TGF-β1 stimulates myofibroblast differentiation of human lung fibroblasts characterized by expression of contractile smooth muscle (SM)-specific proteins such as SM-alpha-actin (SM-α-actin). TGF-β1 also stimulates SM-α-actin expression in human lung fibroblasts which parallels a profound induction of serum response factor (SRF) expression and activity. Increased contractile gene expression with SM-α-actin as marker, increased SRF, increased connective tissue growth factor (CTGF) and increased matrix genes (e.g. fibronectin) are examples of effects observed during myofibroblast differentiation. Myofibroblast differentiation is induced by stimulation with TGF-β1 thereby increasing markers of differentiation.
(§2) Human lung fibroblasts were pre-treated with Palomid 529 for 30 minutes prior to TGF-β1 stimulation. Western Blot with antibodies against CTGF, SRG, SM-α-actin and β-actin is shown.

SRF = experiment: TGF-β1 stimulated SRF in human lung fibroblasts, Western Blot; format: cell-based; conditions: 30 μM; 30 minutes pre-treatment before TGF-β1
Source text: as §1, §2

SM-α-actin = experiment: TGF-β1 stimulated SM-α-actin in human lung fibroblasts, Western Blot; format: cell-based; conditions: 30 μM; 30 minutes pre-treatment before TGF-β1
Source text: as §1, §2

p-AKT(S473) = experiment: AKT phosphorylation in human lung fibroblasts, Western Blot; format: cell-based; conditions: 30 μM
Experimental: Human lung fibroblasts are stimulated for one hour with either TGF-β1 or α-Thrombin in presence of 30 μM Palomid 529 to effect activation of signal transduction proteins. p-AKT(S473) and AKT levels are measured by Western Blot. Scanning software, Scion Image (Scion Corporation, Frederick, Md.), was used to digitize bands on Western Blot for numeric calculation of percent inhibition described in text.

[5] = 7-day detachment, versus control

**Q.** Which “reducing epiretinal membrane formation” value [1] does the source give for `O=c1[nH]cc(F)c(=O)[nH]1` [5-fluorouracil] here?
**A.** not effective

**Q.** With `COc1ccc(COc2cc3oc(=O)c4cc(C(C)O)ccc4c3cc2OC)cc1` (stereo not shown) [Palomid 529] as the compound, how does the “average number of anti-BrdU labeled Müller cell nuclei” value ([2]; 3-day detachment, 600 μg intravitreally, vehicle control 10.79) read?
**A.** 1.19 /mm of retina

**Q.** And the “reduction of average number of subretinal scars” value [2, 5]?
**A.** approximately 4 fold

**Q.** And the “reduction of length of subretinal scars” value [2, 5]?
**A.** more than 20 fold

**Q.** And the “average number of subretinal scars” value ([2]; 7-day detachment, 600 μg intravitreally, control 2.03)?
**A.** 0.39 /mm of retina

**Q.** And the “total number of isolectin B4 labeled cells (microglia and macrophages)” value ([2]; 7-day detachment, 600 μg intravitreally, control 43.9)?
**A.** 24.5 /mm retina

**Q.** What about the “average number of anti-BrdU labeled Müller cell nuclei” value ([2]; 7-day detachment, 600 μg intravitreally, vehicle control 9.83) of the same compound?
**A.** 1.49 /mm of retina

**Q.** What about the “average thickness of the ONL” value ([2]; 7 days of detachment, 600 μg intravitreally, normal retina 34.45 μm, vehicle 19.40 μm) of the same compound?
**A.** 27.21 μm

**Q.** What about the “average length of subretinal scars” value ([2]; day 7, 600 μg intravitreally, control 131.28 μm) of the same compound?
**A.** 11.01 μm

**Q.** And the “number of BrdU labeled Müller cells per millimeter” value ([3]; 3 and 7 day time points)?
**A.** statistically significant decrease

**Q.** And the “number and size of sub-retinal scars” value ([3]; day 7)?
**A.** significant decrease

**Q.** And the “expected half-life in the vitreous” value [4]?
**A.** at least 3 months

**Q.** And the “inhibition of TGF-β1 stimulated increase of CTGF” value (CTGF)?
**A.** 18%

**Q.** What about the “inhibition of TGF-β1 stimulated increase of SRF” value (SRF) of the same compound?
**A.** 29%

**Q.** And the “inhibition of TGF-β1 stimulated increase of SM-α-actin” value (SM-α-actin)?
**A.** 65%

**Q.** And the “inhibition of basal level of AKT phosphorylation” value (p-AKT(S473); basal, stated with the TGF-β1 result)?
**A.** 13%

**Q.** What about the “decrease of AKT phosphorylation in the absence of α-Thrombin (basal level)” value (p-AKT(S473); basal, stated with the α-Thrombin result) of the same compound?
**A.** 15%

**Q.** And the “inhibition of phosphorylation of AKT stimulated by TGF-β1” value (p-AKT(S473); one hour TGF-β1)?
**A.** 27%

**Q.** What about the “decrease of AKT phosphorylation in the presence of α-Thrombin” value (p-AKT(S473); one hour α-Thrombin) of the same compound?
**A.** 15%
